Test results: ChEMBL document CHEMBL1156950, “Synthesis and biological evaluation of 4-anilinoquinolines as potent inhibitors of epidermal growth factor receptor” (J Med Chem, 2010)

Key:
[1] = biological target: Interleukin-1 receptor-associated kinase 4 (Homo sapiens) (UniProt Q9NWZ3); assay: Inhibition of IRAK4 at 10 uM assessed as residual activity by [33P]ATP radioactive filter binding assay relative to control
[2] = biological target: Dual specificity tyrosine-phosphorylation-regulated kinase 2 (Homo sapiens) (UniProt Q92630); assay: Inhibition of DYRK2 at 10 uM assessed as residual activity by [33P]ATP radioactive filter binding assay relative to control
[3] = biological target: Tyrosine-protein kinase Yes (Homo sapiens) (UniProt P07947); assay: Inhibition of YES1 at 10 uM assessed as residual activity by [33P]ATP radioactive filter binding assay relative to control
[4] = biological target: Ribosomal protein S6 kinase alpha-1 (Homo sapiens) (UniProt Q15418); assay: Inhibition of RSK1 at 10 uM assessed as residual activity by [33P]ATP radioactive filter binding assay relative to control
[5] = biological target: MAP kinase-activated protein kinase 3 (Homo sapiens) (UniProt Q16644); assay: Inhibition of MAPKAPK-3 at 10 uM assessed as residual activity by [33P]ATP radioactive filter binding assay relative to control
[6] = Inhibition of PHK at 10 uM assessed as residual activity by [33P]ATP radioactive filter binding assay relative to control
[7] = Inhibition of PKA at 10 uM assessed as residual activity by [33P]ATP radioactive filter binding assay relative to control
cells [8] = settings: Mus musculus, BaF3, 96 h
Description: Growth inhibition of mouse BA/F3 cells expressing EGFR Del3 and Thr790Met mutant after 96 hrs by cell titer-glo assay

[9] = biological target: MAP/microtubule affinity-regulating kinase 3 (Homo sapiens) (UniProt P27448); assay: Inhibition of MARK3 at 10 uM assessed as residual activity by [33P]ATP radioactive filter binding assay relative to control
[10] = biological target: Serine/threonine-protein kinase Chk2 (Homo sapiens) (UniProt O96017); assay: Inhibition of CHK2 at 10 uM assessed as residual activity by [33P]ATP radioactive filter binding assay relative to control
[11] = biological target: Mitogen-activated protein kinase 13 (Homo sapiens) (UniProt O15264); assay: Inhibition of p38delta at 10 uM assessed as residual activity by [33P]ATP radioactive filter binding assay relative to control
[12] = biological target: Mitogen-activated protein kinase 12 (Homo sapiens) (UniProt P53778); assay: Inhibition of p38-gamma at 10 uM assessed as residual activity by [33P]ATP radioactive filter binding assay relative to control
[13] = biological target: Ephrin type-A receptor 2 (Homo sapiens) (UniProt P29317); assay: Inhibition of EPHA2 at 10 uM assessed as residual activity by [33P]ATP radioactive filter binding assay relative to control
cells [14] = settings: Mus musculus, BaF3, 96 h; remark: listed apart in the source
Description: Growth inhibition of mouse BA/F3 cells expressing EGFR Del5 and Thr790Met mutant after 96 hrs by cell titer-glo assay

[15] = biological target: MAP/microtubule affinity-regulating kinase 4 (Homo sapiens) (UniProt Q96L34); assay: Inhibition of MARK4 at 10 uM assessed as residual activity by [33P]ATP radioactive filter binding assay relative to control
[16] = biological target: Protein kinase C alpha type (Homo sapiens) (UniProt P17252); assay: Inhibition of PKCalpha at 10 uM assessed as residual activity by [33P]ATP radioactive filter binding assay relative to control
[17] = biological target: Aurora kinase B (Homo sapiens) (UniProt Q96GD4); assay: Inhibition of Aurora B at 10 uM assessed as residual activity by [33P]ATP radioactive filter binding assay relative to control
[18] = Inhibition of AMPK at 10 uM assessed as residual activity by [33P]ATP radioactive filter binding assay relative to control
[19] = biological target: Calcium/calmodulin-dependent protein kinase type 1 (Homo sapiens) (UniProt Q14012); assay: Inhibition of CAMK1 at 10 uM assessed as residual activity by [33P]ATP radioactive filter binding assay relative to control
[20] = biological target: Dual specificity mitogen-activated protein kinase kinase 1 (Homo sapiens) (UniProt Q02750); assay: Inhibition of MKK1 at 10 uM assessed as residual activity by [33P]ATP radioactive filter binding assay relative to control
[21] = biological target: Serine/threonine-protein kinase 3 (Homo sapiens) (UniProt Q13188); assay: Inhibition of MST2 at 10 uM assessed as residual activity by [33P]ATP radioactive filter binding assay relative to control
[22] = biological target: Myosin light chain kinase, smooth muscle (Homo sapiens) (UniProt Q15746); assay: Inhibition of SmMLCK at 10 uM assessed as residual activity by [33P]ATP radioactive filter binding assay relative to control
[23] = biological target: Protein kinase C zeta type (Homo sapiens) (UniProt Q05513); assay: Inhibition of PKCzeta at 10 uM assessed as residual activity by [33P]ATP radioactive filter binding assay relative to control
[24] = biological target: Homeodomain-interacting protein kinase 1 (Homo sapiens) (UniProt Q86Z02); assay: Inhibition of HIPK1 at 10 uM assessed as residual activity by [33P]ATP radioactive filter binding assay relative to control
[25] = biological target: Aurora kinase A (Homo sapiens) (UniProt O14965); assay: Inhibition of Aurora A at 10 uM assessed as residual activity by [33P]ATP radioactive filter binding assay relative to control
[26] = biological target: RAC-beta serine/threonine-protein kinase (Homo sapiens) (UniProt P31751); assay: Inhibition of PKBbeta at 10 uM assessed as residual activity by [33P]ATP radioactive filter binding assay relative to control
cells [27] = settings: Mus musculus, BaF3, 96 h; remark: listed apart in the source
[28] = biological target: Fibroblast growth factor receptor 1 (Homo sapiens) (UniProt P11362); assay: Inhibition of FGF-R1 at 10 uM assessed as residual activity by [33P]ATP radioactive filter binding assay relative to control
[29] = biological target: Serine/threonine-protein kinase BRSK1 (Homo sapiens) (UniProt Q8TDC3); assay: Inhibition of BRSK1 at 10 uM assessed as residual activity by [33P]ATP radioactive filter binding assay relative to control
[30] = biological target: Tyrosine-protein kinase Lck (Homo sapiens) (UniProt P06239); assay: Inhibition of Lck at 10 uM assessed as residual activity by [33P]ATP radioactive filter binding assay relative to control
[31] = biological target: Rho-associated protein kinase 2 (Homo sapiens) (UniProt O75116); assay: Inhibition of ROCK2 at 10 uM assessed as residual activity by [33P]ATP radioactive filter binding assay relative to control
[32] = biological target: Eukaryotic elongation factor 2 kinase (Homo sapiens) (UniProt O00418); assay: Inhibition of EF2K at 10 uM assessed as residual activity by [33P]ATP radioactive filter binding assay relative to control
[33] = biological target: Cyclin-dependent kinase 2/cyclin A (Homo sapiens) (UniProt P24941+P20248+P78396); assay: Inhibition of CDK2/Cyclin A at 10 uM assessed as residual activity by [33P]ATP radioactive filter binding assay relative to control; type: protein-complex assay
[34] = biological target: Mitogen-activated protein kinase kinase kinase 11 (Homo sapiens) (UniProt Q16584); assay: Inhibition of MLK3 at 10 uM assessed as residual activity by [33P]ATP radioactive filter binding assay relative to control

Chain of MAP/microtubule affinity-regulating kinase 4 (Homo sapiens) (Q96L34 whole entry): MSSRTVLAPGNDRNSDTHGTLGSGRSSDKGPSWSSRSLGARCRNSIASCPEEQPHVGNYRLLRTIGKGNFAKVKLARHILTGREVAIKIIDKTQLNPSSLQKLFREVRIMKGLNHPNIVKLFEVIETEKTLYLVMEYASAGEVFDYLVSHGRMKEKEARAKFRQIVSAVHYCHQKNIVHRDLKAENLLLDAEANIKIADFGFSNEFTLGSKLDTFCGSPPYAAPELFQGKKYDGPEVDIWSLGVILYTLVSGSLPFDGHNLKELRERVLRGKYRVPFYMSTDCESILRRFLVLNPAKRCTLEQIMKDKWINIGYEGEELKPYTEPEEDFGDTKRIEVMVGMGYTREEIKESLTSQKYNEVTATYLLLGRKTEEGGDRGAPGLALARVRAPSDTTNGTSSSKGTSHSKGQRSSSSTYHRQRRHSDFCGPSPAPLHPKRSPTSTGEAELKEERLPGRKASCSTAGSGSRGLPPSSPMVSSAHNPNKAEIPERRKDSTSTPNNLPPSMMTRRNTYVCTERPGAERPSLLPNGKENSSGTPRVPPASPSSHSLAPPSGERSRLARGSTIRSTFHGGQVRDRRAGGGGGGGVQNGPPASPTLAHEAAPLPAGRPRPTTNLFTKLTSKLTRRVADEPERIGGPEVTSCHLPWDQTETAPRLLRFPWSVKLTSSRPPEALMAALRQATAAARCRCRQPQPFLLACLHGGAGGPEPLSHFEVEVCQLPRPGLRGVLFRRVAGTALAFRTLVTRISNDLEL
Chain of Fibroblast growth factor receptor 1 (Homo sapiens) (P11362 22-822 limits assumed): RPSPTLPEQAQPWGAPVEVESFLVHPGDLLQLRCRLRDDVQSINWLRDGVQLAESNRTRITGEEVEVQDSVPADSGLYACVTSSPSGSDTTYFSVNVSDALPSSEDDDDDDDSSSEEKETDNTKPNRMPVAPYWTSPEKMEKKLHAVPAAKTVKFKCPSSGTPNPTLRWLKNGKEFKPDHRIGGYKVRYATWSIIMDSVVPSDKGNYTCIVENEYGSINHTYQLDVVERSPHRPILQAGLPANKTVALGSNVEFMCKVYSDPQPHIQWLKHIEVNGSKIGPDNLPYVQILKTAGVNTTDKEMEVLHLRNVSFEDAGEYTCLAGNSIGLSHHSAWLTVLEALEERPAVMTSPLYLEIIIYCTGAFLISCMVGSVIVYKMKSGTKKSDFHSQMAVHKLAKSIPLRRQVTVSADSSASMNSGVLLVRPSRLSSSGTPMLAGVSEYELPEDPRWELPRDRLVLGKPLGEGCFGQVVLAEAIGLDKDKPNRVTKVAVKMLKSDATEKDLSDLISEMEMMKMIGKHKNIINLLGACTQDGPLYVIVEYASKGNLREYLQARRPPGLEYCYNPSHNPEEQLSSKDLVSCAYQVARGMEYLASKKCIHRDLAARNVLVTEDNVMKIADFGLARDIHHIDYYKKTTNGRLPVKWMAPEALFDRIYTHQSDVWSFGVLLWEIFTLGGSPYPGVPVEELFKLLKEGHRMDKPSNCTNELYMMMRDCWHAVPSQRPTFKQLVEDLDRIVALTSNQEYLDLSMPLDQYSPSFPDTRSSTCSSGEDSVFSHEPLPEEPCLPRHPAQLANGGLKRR
Chain of Rho-associated protein kinase 2 (Homo sapiens) (O75116 whole entry, looked up): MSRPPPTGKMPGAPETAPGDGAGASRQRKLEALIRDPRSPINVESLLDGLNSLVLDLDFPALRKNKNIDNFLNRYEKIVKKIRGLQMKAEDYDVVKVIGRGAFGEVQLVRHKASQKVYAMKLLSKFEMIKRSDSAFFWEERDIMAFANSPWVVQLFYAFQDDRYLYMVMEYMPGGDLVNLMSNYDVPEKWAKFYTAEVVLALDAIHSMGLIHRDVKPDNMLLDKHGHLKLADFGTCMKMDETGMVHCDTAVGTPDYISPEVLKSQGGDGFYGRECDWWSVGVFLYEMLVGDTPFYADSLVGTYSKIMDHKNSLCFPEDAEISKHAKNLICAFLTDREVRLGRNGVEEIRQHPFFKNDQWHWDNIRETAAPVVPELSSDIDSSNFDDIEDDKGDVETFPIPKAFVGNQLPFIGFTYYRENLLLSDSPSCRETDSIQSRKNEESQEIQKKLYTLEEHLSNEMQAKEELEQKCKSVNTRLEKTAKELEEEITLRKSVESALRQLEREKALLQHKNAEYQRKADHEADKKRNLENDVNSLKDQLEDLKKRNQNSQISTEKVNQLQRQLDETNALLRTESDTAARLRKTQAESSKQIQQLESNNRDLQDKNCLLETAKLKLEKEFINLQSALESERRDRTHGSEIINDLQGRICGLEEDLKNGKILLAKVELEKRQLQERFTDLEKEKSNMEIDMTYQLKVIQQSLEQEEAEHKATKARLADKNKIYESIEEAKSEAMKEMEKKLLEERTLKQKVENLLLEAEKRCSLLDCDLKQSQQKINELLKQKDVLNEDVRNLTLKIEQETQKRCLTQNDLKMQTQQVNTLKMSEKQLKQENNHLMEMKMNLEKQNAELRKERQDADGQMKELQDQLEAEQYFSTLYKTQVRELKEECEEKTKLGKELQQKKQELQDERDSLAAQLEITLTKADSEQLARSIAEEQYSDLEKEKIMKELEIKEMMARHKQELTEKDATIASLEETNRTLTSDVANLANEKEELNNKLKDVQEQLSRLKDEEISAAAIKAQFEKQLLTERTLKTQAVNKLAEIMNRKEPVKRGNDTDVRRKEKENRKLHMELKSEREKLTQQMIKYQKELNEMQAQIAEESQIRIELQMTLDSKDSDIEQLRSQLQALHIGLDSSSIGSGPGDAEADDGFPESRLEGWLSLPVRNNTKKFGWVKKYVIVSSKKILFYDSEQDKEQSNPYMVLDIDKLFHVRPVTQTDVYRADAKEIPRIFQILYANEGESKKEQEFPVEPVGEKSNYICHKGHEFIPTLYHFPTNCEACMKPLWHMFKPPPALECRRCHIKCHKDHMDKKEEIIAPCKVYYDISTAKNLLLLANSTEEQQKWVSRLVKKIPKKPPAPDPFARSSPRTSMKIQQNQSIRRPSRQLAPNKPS
Chain of Interleukin-1 receptor-associated kinase 4 (Homo sapiens) (Q9NWZ3 whole entry): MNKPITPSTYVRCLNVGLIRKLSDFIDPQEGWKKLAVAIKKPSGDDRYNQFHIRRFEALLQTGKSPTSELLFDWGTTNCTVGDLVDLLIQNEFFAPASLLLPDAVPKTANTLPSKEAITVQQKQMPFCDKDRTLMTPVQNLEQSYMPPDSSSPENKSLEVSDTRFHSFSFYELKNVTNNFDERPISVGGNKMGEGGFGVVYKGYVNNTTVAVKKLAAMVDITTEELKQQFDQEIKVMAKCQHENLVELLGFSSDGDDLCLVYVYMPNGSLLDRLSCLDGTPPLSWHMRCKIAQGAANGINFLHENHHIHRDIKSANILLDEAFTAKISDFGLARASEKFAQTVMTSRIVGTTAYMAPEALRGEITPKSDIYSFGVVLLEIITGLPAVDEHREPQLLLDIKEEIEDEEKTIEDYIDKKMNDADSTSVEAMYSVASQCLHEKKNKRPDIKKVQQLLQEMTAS
Chain of Serine/threonine-protein kinase BRSK1 (Homo sapiens) (Q8TDC3 whole entry): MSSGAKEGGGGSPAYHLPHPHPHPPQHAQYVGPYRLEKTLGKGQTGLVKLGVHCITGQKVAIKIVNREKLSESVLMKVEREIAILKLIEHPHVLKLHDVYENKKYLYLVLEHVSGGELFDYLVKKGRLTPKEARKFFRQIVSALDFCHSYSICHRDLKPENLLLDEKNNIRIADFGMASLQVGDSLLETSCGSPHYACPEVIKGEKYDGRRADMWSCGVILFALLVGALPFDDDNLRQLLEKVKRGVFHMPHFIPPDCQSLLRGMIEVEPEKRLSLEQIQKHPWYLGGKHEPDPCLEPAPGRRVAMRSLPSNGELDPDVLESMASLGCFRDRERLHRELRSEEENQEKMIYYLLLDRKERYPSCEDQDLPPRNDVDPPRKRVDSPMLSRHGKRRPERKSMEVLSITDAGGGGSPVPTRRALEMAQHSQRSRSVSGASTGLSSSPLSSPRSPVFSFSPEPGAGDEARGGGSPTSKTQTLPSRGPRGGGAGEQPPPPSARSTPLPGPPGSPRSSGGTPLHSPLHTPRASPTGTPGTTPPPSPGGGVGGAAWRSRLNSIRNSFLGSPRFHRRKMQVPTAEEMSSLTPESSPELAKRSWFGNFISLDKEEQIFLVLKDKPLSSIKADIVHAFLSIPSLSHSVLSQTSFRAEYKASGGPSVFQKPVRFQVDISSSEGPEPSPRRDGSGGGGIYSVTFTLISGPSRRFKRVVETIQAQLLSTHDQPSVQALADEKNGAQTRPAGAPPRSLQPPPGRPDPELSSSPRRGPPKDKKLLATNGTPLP

Structure (SMILES)	Activity [1] [%]	Activity [2] [%]	Activity [3] [%]	Activity [4] [%]	Activity [5] [%]	Activity [6] [%]	Activity [7] [%]	GI50 (cells [8]) [nM]	Activity [9] [%]	Activity [10] [%]	Activity [11] [%]	Activity [12] [%]	Activity [13] [%]	GI50 (cells [14]) [nM]	Activity [15] [%]	Activity [16] [%]	Activity [17] [%]	Activity [18] [%]	Activity [19] [%]	Activity [20] [%]	other results
CN(C)CCCC(=O)Nc1ccc2ncnc(Nc3cccc(Br)c3)c2c1	81	51	7	72	81	10	91	> 5000	86	38	79	85	53	> 5000	74	78	21	70	57	29	Activity [21]: 90%; Activity [22]: 18%; Activity [23]: 86%; Activity [24]: 126%; Activity [25]: 66%; Activity [26]: 80%; GI50 (cells [27]): < 500 nM; Activity [28]: 37%; Activity [29]: 52%; Activity [30]: 3%; Activity [31]: 95%; Activity [32]: 91%; Activity [33]: 93%; Activity [34]: 65%
CN(C)CCCC(=O)Nc1ccc2nccc(Nc3cccc(Br)c3)c2c1	70	52	4	89	72	26	86	> 500	94	27	76	94	26	> 500	75	81	33	83	30	45	Activity [21]: 80%; Activity [22]: 48%; Activity [23]: 86%; Activity [24]: 103%; Activity [25]: 88%; Activity [26]: 61%; GI50 (cells [27]): < 500 nM; Activity [28]: 31%; Activity [29]: 46%; Activity [30]: 1%; Activity [31]: 88%; Activity [32]: 99%; Activity [33]: 88%; Activity [34]: 84%
